Source: patent US9163011B2, “Oxazine derivatives and their use in the treatment of disease” (NOVARTIS AG, priority 2011, dated 2015)

How the values were obtained:
Human BACE-1 = Human BACE-1 (Homo sapiens (Human), UniProt P56817); test: Test 1: Inhibition of Human BACE-1; type: biochemical; settings: recombinant BACE-1, pH 4.5, 1 hour preincubation
Description: Test 1: Inhibition of Human BACE-1
(§1) Recombinant BACE-1 (extracellular domain, expressed in baculovirus and purified using standard methods) at 0.1 to 1 nM concentrations is incubated with the test compound at various concentrations for 1 hour at room temperature in 100 mM acetate buffer, pH 4.5, containing 0.1% CHAPS. Activity was measured using a final concentration of 3 μM of the fluorescence-quenched substrate Q-C(HSO3)-Ile-Asp-Leu-Ala-Val-Leu-Asp-HN—CH2—CH2-Mca, where Q=2-nitro-5-amino benzoic acid and Mca=7-methoxy-4-coumarinyl acetic acid. Catalytic turnover was monitored in a Spectramax Gemini fluorescence plate reader (Molecular Devices) in black 96-well microplates using excitation/emission wavelength of 325 nm and 400 nm, respectively. Fluorescence increase was followed for 15 min, in 1 minute's intervals. The fluorescence/time slopes were calculated from duplicate wells and from wells without inhibitor and the IC50 values were calculated using a logistic 4-parameter model.

Human BACE-2 = Human BACE-2 (Homo sapiens (Human), UniProt Q9Y5Z0); test: Test 2: Inhibition of Human BACE-2; type: biochemical; settings: recombinant BACE-2, pH 4.5, 1 hour preincubation
Description: Test 2: Inhibition of Human BACE-2
as §1, with “BACE-2” for “BACE-1”

[1] = Test 4: Inhibition of Cellular Release of Amyloid Peptide 1-40; type: cell-based, Chinese hamster; settings: Cricetulus griseus; CHO cells with human APP, 24 hours with compound; read-out: Test 4 Amyloid-β1-40 release IC50
Description: The cells are plated at a density of 8000 cells/well into 96-well microtiter plates and cultivated for 24 hours in DMEM cell culture medium containing 10% FCS. The test compound is added to the cells at various concentrations, and the cells are cultivated for 24 hours in the presence of the test compound. […] The potency of the compound is calculated from the percentage of inhibition of amyloid peptide release as a function of the test compound concentration.

Sequence of Human BACE-2 (Q9Y5Z0 63-473): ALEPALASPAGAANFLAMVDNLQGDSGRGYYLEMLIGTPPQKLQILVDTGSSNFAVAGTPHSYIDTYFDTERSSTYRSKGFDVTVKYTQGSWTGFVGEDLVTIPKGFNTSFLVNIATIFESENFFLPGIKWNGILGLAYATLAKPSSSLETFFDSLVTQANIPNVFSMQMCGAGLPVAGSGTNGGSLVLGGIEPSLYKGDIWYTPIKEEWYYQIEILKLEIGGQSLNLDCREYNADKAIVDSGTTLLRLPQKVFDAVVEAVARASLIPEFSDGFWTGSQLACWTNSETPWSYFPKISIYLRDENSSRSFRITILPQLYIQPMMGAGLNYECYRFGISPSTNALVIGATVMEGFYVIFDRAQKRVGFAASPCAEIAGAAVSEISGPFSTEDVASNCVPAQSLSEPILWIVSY
Sequence of Human BACE-1 (P56817 46-457): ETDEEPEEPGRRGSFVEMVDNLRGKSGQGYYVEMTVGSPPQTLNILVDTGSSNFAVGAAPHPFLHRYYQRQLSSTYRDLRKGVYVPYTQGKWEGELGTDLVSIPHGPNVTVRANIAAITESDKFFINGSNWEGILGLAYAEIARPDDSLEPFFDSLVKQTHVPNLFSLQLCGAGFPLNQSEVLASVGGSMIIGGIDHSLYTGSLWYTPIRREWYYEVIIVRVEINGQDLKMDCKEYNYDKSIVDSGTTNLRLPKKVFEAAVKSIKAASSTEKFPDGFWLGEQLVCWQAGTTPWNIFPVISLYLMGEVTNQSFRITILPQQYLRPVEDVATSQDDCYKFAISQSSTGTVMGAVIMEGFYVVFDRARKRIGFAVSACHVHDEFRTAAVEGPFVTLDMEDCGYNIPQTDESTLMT

| Compound | IC50 (Human BACE-1) | IC50 (Human BACE-2) | IC50 [1] |
| --- | --- | --- | --- |
| CC(F)(F)c1nc(N)c(C(=O)Nc2ccc(F)c([C@@]3(C)N=C(N)OCC3(F)F)n2)nc1Cl [Example 34, 3-Amino-6-chloro-5-(1,1-difluoro-ethyl)-pyrazine-2-carboxylic acid [6-((R)-2-amino-5,5-difluoro-4-methyl-5,6-dihydro-4H-[1,3]oxazin-4-yl)-5-fluoro-pyridin-2-yl]-amide] | > 10000 nM | > 10000 nM | 6500 nM |
| COCC[C@@]1(c2nc(NC(=O)c3ncc(C#N)cc3C)ccc2F)N=C(N)OCC1(F)F [Example 5] |  |  | > 10000 nM |
| COCC[C@]1(c2nc(NC(=O)c3ncc(C(F)(F)F)cc3Cl)ccc2F)N=C(N)OCC1(F)F [Example 6, 3-Chloro-5-trifluoromethyl-pyridine-2-carboxylic acid {6-[(R)-2-amino-5,5-difluoro-4-(2-methoxy-ethyl)-5,6-dihydro-4H-[1,3]oxazin-4-yl]-5-fluoro-pyridin-2-yl}-amide] | 650 nM | 6600 nM | 380 nM |
| CCOc1cnc(C(=O)Nc2ccc(F)c([C@@]3(C)N=C(N)OCC3(F)F)n2)c(Cl)c1 [Example 27, 3-Chloro-5-ethoxy-pyridine-2-carboxylic acid [6-((R)-2-amino-5,5-difluoro-4-methyl-5,6-dihydro-4H-[1,3]oxazin-4-yl)-5-fluoro-pyridin-2-yl]-amide] | 290 nM | 420 nM | 450 nM |
| C[C@]1(c2nc(NC(=O)c3ncc(OCC(F)(F)F)nc3N)ccc2F)N=C(N)OCC1(F)F [Example 10, 3-Amino-5-(2,2,2-trifluoro-ethoxy)pyrazine-2-carboxylic acid [6-((R)-2-amino-5,5-difluoro-4-methyl-5,6-dihydro-4H-[1,3]oxazin-4-yl)-5-fluoro-pyridin-2-yl]-amide] | 590 nM | 3800 nM | 600 nM |
| C[C@]1(c2nc(NC(=O)c3ncc(OCC(F)F)cc3Cl)ccc2F)N=C(N)OCC1(F)F [Example 24, 3-Chloro-5-(2,2-difluoro-ethoxy)-pyridine-2-carboxylic acid [6-((R)-2-amino-5,5-difluoro-4-methyl-5,6-dihydro-4H-[1,3]oxazin-4-yl)-5-fluoro-pyridin-2-yl]-amide] | 240 nM | 4500 nM | 250 nM |
| C[C@]1(c2nc(NC(=O)c3ncc(OCCF)nc3N)ccc2F)N=C(N)OCC1(F)F [Example 25, 3-Amino-5-(2-fluoro-ethoxy)-pyrazine-2-carboxylic acid [6-((R)-2-amino-5,5-difluoro-4-methyl-5,6-dihydro-4H-[1,3]oxazin-4-yl)-5-fluoro-pyridin-2-yl]-amide] | 570 nM | > 10000 nM | 480 nM |
| C[C@]1(c2nc(NC(=O)c3ncc(C(F)(F)F)nc3N)ccc2F)N=C(N)OCC1(F)F [Example 8, 3-Amino-5-trifluoromethyl-pyrazine-2-carboxylic acid [6-((R)-2-amino-5,5-difluoro-4-methyl-5,6-dihydro-4H-[1,3]oxazin-4-yl)-5-fluoro-pyridin-2-yl]-amide] | 160 nM | 1400 nM | 140 nM |
| CC(F)(F)c1cnc(C(=O)Nc2ccc(F)c([C@@]3(C)N=C(N)OCC3(F)F)n2)c(N)n1 [Example 37, 3-Amino-5-(1,1-difluoro-ethyl)-pyrazine-2-carboxylic acid [6-((R)-2-amino-5,5-difluoro-4-methyl-5,6-dihydro-4H-[1,3]oxazin-4-yl)-5-fluoro-pyridin-2-yl]-amide] | 64 nM | > 10000 nM | 310 nM |
| COCCOc1cnc(C(=O)Nc2ccc(F)c([C@@]3(C)N=C(N)OCC3(F)F)n2)c(N)n1 [Example 16, 3-Amino-5-(2-methoxy-ethoxy)-pyrazine-2-carboxylic acid [6-((R)-2-amino-5,5-difluoro-4-methyl-5,6-dihydro-4H-[1,3]oxazin-4-yl)-5-fluoro-pyridin-2-yl]amide] | 120 nM | 8900 nM |  |
| COCC#Cc1cnc(C(=O)Nc2ccc(F)c([C@@]3(C)N=C(N)OCC3(F)F)n2)c(N)c1 [Example 14, 3-Amino-5-(3-methoxy-prop-1-ynyl)-pyridine-2-carboxylic acid [6-((R)-2-amino-5,5-difluoro-4-methyl-5,6-dihydro-4H-[1,3]oxazin-4-yl)-5-fluoro-pyridin-2-yl]-amide] |  |  | 540 nM |

Results, then the compound that gave them:

| IC50 (Human BACE-1) | IC50 (Human BACE-2) | IC50 [1] | Compound |
| --- | --- | --- | --- |
| 330 nM | 120 nM | 88 nM | C[C@]1(c2nc(NC(=O)c3ncc(F)cc3N)ccc2F)N=C(N)OCC1(F)F [Example 18, 3-Amino-5-fluoro-pyridine-2-carboxylic acid [6-((R)-2-amino-5,5-difluoro-4-methyl-5,6-dihydro-4H-[1,3]oxazin-4-yl)-5-fluoro-pyridin-2-yl]-amide] |
| 150 nM | 5600 nM | 70 nM | COCCc1cnc(C(=O)Nc2ccc(F)c([C@@]3(C)N=C(N)OCC3(F)F)n2)c(N)n1 [Example 29, 3-Amino-5-(2-methoxy-ethyl)-pyrazine-2-carboxylic acid [6-((R)-2-amino-5,5-difluoro-4-methyl-5,6-dihydro-4H-[1,3]oxazin-4-yl)-5-fluoro-pyridin-2-yl]-amide] |
| 60 nM | 930 nM | 19 nM | C[C@]1(c2nc(NC(=O)c3ncc(C#CCO)cc3Cl)ccc2F)N=C(N)OCC1(F)F [Example 32, 3-Chloro-5-(3-hydroxy-prop-1-ynyl)-pyridine-2-carboxylic acid [6-((R)-2-amino-5,5-difluoro-4-methyl-5,6-dihydro-4H-[1,3]oxazin-4-yl)-5-fluoro-pyridin-2-yl]-amide] |
| 110 nM | 730 nM | 30 nM | C[C@]1(c2nc(NC(=O)c3ncc(OCF)nc3N)ccc2F)N=C(N)OCC1(F)F [Example 15, 3-Amino-5-fluoromethoxy-pyrazine-2-carboxylic acid [6-((R)-2-amino-5,5-difluoro-4-methyl-5,6-dihydro-4H-[1,3]oxazin-4-yl)-5-fluoro-pyridin-2-yl]-amide] |
| 60 nM | 48 nM | 45 nM | C[C@]1(c2nc(NC(=O)c3ncc(Cl)cc3N)ccc2F)N=C(N)OCC1(F)F [Example 19, 3-Amino-5-chloro-pyridine-2-carboxylic acid [6-((R)-2-amino-5,5-difluoro-4-methyl-5,6-dihydro-4H-[1,3]oxazin-4-yl)-5-fluoro-pyridin-2-yl]-amide] |
| 54 nM | 260 nM | 14 nM | C[C@]1(c2nc(NC(=O)c3ccc(C#N)cn3)ccc2F)N=C(N)OCC1(F)F [Example 35, 5-Cyano-pyridine-2-carboxylic acid [6-((R)-2-amino-5,5-difluoro-4-methyl-5,6-dihydro-4H-[1,3]oxazin-4-yl)-5-fluoro-pyridin-2-yl]-amide] |
|  |  | 82 nM | COc1cnc(C(=O)Nc2ccc(F)c([C@@]3(C)N=C(N)OCC3(F)F)n2)c(C)c1 [Example 13, 5-Methoxy-3-methyl-pyridine-2-carboxylic acid [6-((R)-2-amino-5,5-difluoro-4-methyl-5,6-dihydro-4H-[1,3]oxazin-4-yl)-5-fluoro-pyridin-2-yl]-amide] |
| 18 nM | 4 nM | 12 nM | C[C@]1(c2nc(NC(=O)c3ncc(Cl)cc3Cl)ccc2F)N=C(N)OCC1(F)F [Example 9, 3,5-Dichloro-pyridine-2-carboxylic acid [6-((R)-2-amino-5,5-difluoro-4-methyl-5,6-dihydro-4H-[1,3]oxazin-4-yl)-5-fluoro-pyridin-2-yl]-amide] |
| 140 nM | 260 nM | 66 nM | C[C@]1(c2nc(NC(=O)c3ncc(C(F)F)cc3N)ccc2F)N=C(N)OCC1(F)F [Example 33, 3-Amino-5-difluoromethyl-pyridine-2-carboxylic acid [6-((R)-2-amino-5,5-difluoro-4-methyl-5,6-dihydro-4H-[1,3]oxazin-4-yl)-5-fluoro-pyridin-2-yl]-amide] |
|  |  | 58 nM | CC(F)(F)c1cnc(C(=O)Nc2ccc(F)c([C@@]3(C)N=C(N)OCC3(F)F)n2)c(Cl)c1 [Example 36, 3-Chloro-5-(1,1-difluoro-ethyl)-pyridine-2-carboxylic acid [6-((R)-2-amino-5,5-difluoro-4-methyl-5,6-dihydro-4H-[1,3]oxazin-4-yl)-5-fluoro-pyridin-2-yl]-amide] |
